Source: PubChem BioAssay AID256 (DTP/NCI, 2004)
Where “and” joins values, the source holds several entries; their conditions need not be identical. Equal entries are not always repeated. Toxic doses and inconclusive results are not listed. The calls were made as follows: active = survival T/C of 150% or more; inactive = T/C below 125% in these data.

System: CD2F1 mice, L1210 leukemia ip, survival T/C
Assay: NCI In Vivo Anticancer Drug Screen. Data for tumor model L1210 Leukemia (intraperitoneal) in CD2F1 (CDF1) mice
Details: higher = longer survival
Outline: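 Mice carrying a transplanted tumor received test compound or vehicle alone. The value is the measurement in the treated group divided by that in the vehicle-treated control group.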

[1] = endpoint: mean survival time, dose: 50.0 mg/kg/injection, schedule: Q01DX009 (ip), vehicle: saline with Tween-80
[2] = endpoint: mean survival time, dose: 100.0 mg/kg/injection, schedule: Q01DX009 (ip), vehicle: saline with Tween-80
[3] = endpoint: mean survival time, dose: 200.0 mg/kg/injection, schedule: Q01DX009 (ip), vehicle: saline with Tween-80
[4] = endpoint: mean survival time, dose: 100.0 mg/kg/injection, schedule: Q04DX003 (ip), vehicle: saline with Tween-80
[5] = endpoint: mean survival time, dose: 200.0 mg/kg/injection, schedule: Q04DX003 (ip), vehicle: saline with Tween-80
[6] = endpoint: mean survival time, dose: 400.0 mg/kg/injection, schedule: Q04DX003 (ip), vehicle: saline with Tween-80
[7] = endpoint: mean survival time, dose: 400.0 mg/kg/injection, schedule: Q01DX009 (ip), vehicle: saline with Tween-80
[8] = endpoint: mean survival time, dose: 50.0 mg/kg/injection, schedule: Q01DX009 (ip), vehicle: Klucel (hydroxypropylcellulose) (HPC)
[9] = endpoint: mean survival time, dose: 100.0 mg/kg/injection, schedule: Q01DX001 (ip), vehicle: saline
[10] = endpoint: mean survival time, dose: 200.0 mg/kg/injection, schedule: Q01DX001 (ip), vehicle: saline
[11] = endpoint: mean survival time, dose: 100.0 mg/kg/injection, schedule: Q01DX009 (ip), vehicle: Klucel (hydroxypropylcellulose) (HPC)
[12] = endpoint: mean survival time, dose: 200.0 mg/kg/injection, schedule: Q01DX009 (ip), vehicle: Klucel (hydroxypropylcellulose) (HPC)

Measured: T/C

CN(N=C(C1CC1)C1CC1)c1ccccc1
inactive: endpoint: mean survival time, dose: 100.0 mg/kg/injection, schedule: Q01DX001 (ip), vehicle: saline with Tween-80 100 % of control | endpoint: mean survival time, dose: 200.0 mg/kg/injection, schedule: Q01DX001 (ip), vehicle: saline with Tween-80 107 % of control | endpoint: mean survival time, dose: 400.0 mg/kg/injection, schedule: Q01DX001 (ip), vehicle: saline with Tween-80 105 % of control

O=C(Nc1c(Cl)cccc1Cl)OCCOc1ccc(Br)cc1
inactive: [1] 100 % of control | [2] 103 % of control | [3] 107 % of control

Cc1ccc(C(O)c2c(C)cc(C)cc2C)c(C)c1 (stereo not drawn)
inactive: [4] 94 % of control | [5] 89 % of control | [6] 88 % of control

O=C1CC(=O)NC(=O)N1
inactive: [2] 102 % of control | [3] 97 % of control | [7] 96 % of control

OC(c1ccccc1)C1(c2ccccc2)OCCO1 (stereo not drawn)
inactive: [2] 95 % of control | [4] 97 % of control | [3] 90 % of control | [5] 92 % of control | [7] 92 % of control | [6] 98 % of control

Nc1nc(N)c2c(n1)NCN(Cc1ccc(Cl)cc1Cl)C2
inactive: endpoint: mean survival time, dose: 0.75 mg/kg/injection, schedule: Q01DX009 (ip), vehicle: water 105 % of control | endpoint: mean survival time, dose: 1.5 mg/kg/injection, schedule: Q01DX009 (ip), vehicle: water 94 % of control | endpoint: mean survival time, dose: 3.0 mg/kg/injection, schedule: Q01DX009 (ip), vehicle: water 100 % of control | endpoint: mean survival time, dose: 6.0 mg/kg/injection, schedule: Q01DX009 (ip), vehicle: water 100 % of control | endpoint: mean survival time, dose: 12.0 mg/kg/injection, schedule: Q01DX009 (ip), vehicle: water 96 % of control | endpoint: mean survival time, dose: 24.0 mg/kg/injection, schedule: Q01DX009 (ip), vehicle: water 100 % of control | endpoint: mean survival time, dose: 37.5 mg/kg/injection, schedule: Q01DX009 (ip), vehicle: water 96 % of control | endpoint: mean survival time, dose: 75.0 mg/kg/injection, schedule: Q01DX009 (ip), vehicle: water 91 % of control

N#CCc1nc2ccccc2[nH]1
inactive: endpoint: mean survival time, dose: 25.0 mg/kg/injection, schedule: Q01DX009 (ip), vehicle: Klucel (hydroxypropylcellulose) (HPC) 98 % of control | [8] 93 % of control

CC(C)(C)CC(C)(C)c1ccc(OCCOc2ccccc2N)cc1
inactive: [2] 88 % of control | [3] 88 % of control | [7] 94 % of control

O=C1[O][Hg][c]2cccc3cccc1c23
inactive: endpoint: mean survival time, dose: 2.5 mg/kg/injection, schedule: Q01DX009 (ip), vehicle: saline with Tween-80 88 % of control | endpoint: mean survival time, dose: 5.0 mg/kg/injection, schedule: Q01DX009 (ip), vehicle: saline with Tween-80 94 % of control | endpoint: mean survival time, dose: 10.0 mg/kg/injection, schedule: Q01DX009 (ip), vehicle: saline with Tween-80 95 % of control

CC(C)(CC(=O)O)CC(=O)O.[NH-]C1CCCCC1[NH-].[Pt+2]
inactive: endpoint: median survival time, dose: 3.12 mg/kg/injection, schedule: Q04DX003 (ip), vehicle: saline 87 % of control | endpoint: median survival time, dose: 6.25 mg/kg/injection, schedule: Q04DX003 (ip), vehicle: saline 102 % of control | endpoint: median survival time, dose: 12.5 mg/kg/injection, schedule: Q04DX003 (ip), vehicle: saline 98 % of control | endpoint: median survival time, dose: 25.0 mg/kg/injection, schedule: Q04DX003 (ip), vehicle: saline 108 % of control | endpoint: median survival time, dose: 50.0 mg/kg/injection, schedule: Q04DX003 (ip), vehicle: saline 101 % of control | endpoint: median survival time, dose: 100.0 mg/kg/injection, schedule: Q04DX003 (ip), vehicle: saline 103 % of control | endpoint: median survival time, dose: 200.0 mg/kg/injection, schedule: Q04DX003 (ip), vehicle: saline 112 % of control

CCOc1ccc(Cl)cc1
inactive: [1] 96 % of control | [2] 98 % of control

CN(C)S(=O)(=O)C#Cc1ccccc1
inactive: [4] 104 % of control | [5] 97 % of control | [6] 102 % of control

CC[C+](C)[B-][N+](C)(C)C
inactive: [9] 93 % of control | [10] 98 % of control | endpoint: mean survival time, dose: 400.0 mg/kg/injection, schedule: Q01DX001 (ip), vehicle: saline 100 % of control

CCC(C=O)Cc1ccccc1 (stereo not drawn)
inactive: [4] 95 % of control | [5] 94 % of control | [6] 88 % of control

CCOC(=O)C1(C(=O)OCC)CCC(O)N1C(=O)Cc1ccccc1[N+](=O)[O-] (stereo not drawn)
inactive: [11] 101 % of control | [12] 97 % of control

O=[N+]([O-])c1ccc(CCCl)c(CCl)c1
inactive: [4] 98 % of control | [5] 86 % of control

Oc1ccccc1C=NCCN=Cc1ccccc1O
inactive: [4] 90 % of control | [5] 100 % of control | [6] 92 % of control

COc1ccc2c(Br)cccc2c1
inactive: endpoint: mean survival time, dose: 100.0 mg/kg/injection, schedule: Q04DX003 (ip), vehicle: acetone 102 % of control | endpoint: mean survival time, dose: 200.0 mg/kg/injection, schedule: Q04DX003 (ip), vehicle: acetone 94 % of control | endpoint: mean survival time, dose: 400.0 mg/kg/injection, schedule: Q04DX003 (ip), vehicle: acetone 92 % of control

CC12CCC(=O)C=C1CCC1C2C(=O)CC2(C)C1CCC2(O)C(=O)Cn1cc(F)c(=O)[nH]c1=O (stereo not drawn)
inactive: endpoint: mean survival time, dose: 12.5 mg/kg/injection, schedule: Q04DX003 (ip), vehicle: Klucel (hydroxypropylcellulose) (HPC) 100 % of control | endpoint: mean survival time, dose: 25.0 mg/kg/injection, schedule: Q04DX003 (ip), vehicle: Klucel (hydroxypropylcellulose) (HPC) 103 % of control | endpoint: mean survival time, dose: 50.0 mg/kg/injection, schedule: Q04DX003 (ip), vehicle: Klucel (hydroxypropylcellulose) (HPC) 100 % of control | endpoint: mean survival time, dose: 100.0 mg/kg/injection, schedule: Q04DX003 (ip), vehicle: Klucel (hydroxypropylcellulose) (HPC) 96 % of control | endpoint: mean survival time, dose: 200.0 mg/kg/injection, schedule: Q04DX003 (ip), vehicle: Klucel (hydroxypropylcellulose) (HPC) 94 % of control

CCOC(=O)C(C(=O)OCC)C1CCC2(C)CCC(=O)C=C2C1 (stereo not drawn)
inactive: endpoint: mean survival time, dose: 100.0 mg/kg/injection, schedule: Q04DX002 (ip), vehicle: saline with Tween-80 100 % of control and 107 % of control and 108 % of control | endpoint: mean survival time, dose: 200.0 mg/kg/injection, schedule: Q04DX002 (ip), vehicle: saline with Tween-80 100 % of control and 101 % of control and 104 % of control | endpoint: mean survival time, dose: 400.0 mg/kg/injection, schedule: Q04DX002 (ip), vehicle: saline with Tween-80 98 % of control and 100 % of control | endpoint: mean survival time, dose: 600.0 mg/kg/injection, schedule: Q04DX002 (ip), vehicle: saline with Tween-80 109 % of control

NC(=O)/C=C/C1=NCCC1
inactive: endpoint: mean survival time, dose: 7.5 mg/kg/injection, schedule: Q04DX003 (ip), vehicle: saline with Tween-80 97 % of control | endpoint: mean survival time, dose: 15.0 mg/kg/injection, schedule: Q04DX003 (ip), vehicle: saline with Tween-80 97 % of control | endpoint: mean survival time, dose: 30.0 mg/kg/injection, schedule: Q04DX003 (ip), vehicle: saline with Tween-80 102 % of control | [2] 100 % of control | [3] 103 % of control | [7] 103 % of control

O=C(/C=C/c1ccc(Cl)cc1)c1ccccc1
inactive: [8] 94 % of control | [11] 102 % of control | [12] 105 % of control

CCCCCCC(C)c1cc(C)c(O)c(CN(C)C)c1 (stereo not drawn)
inactive: endpoint: mean survival time, dose: 100.0 mg/kg/injection, schedule: Q04DX003 (ip), vehicle: saline 91 % of control | endpoint: mean survival time, dose: 200.0 mg/kg/injection, schedule: Q04DX003 (ip), vehicle: saline 95 % of control

COC1(c2ccccc2)c2ccccc2C(OC)(c2ccccc2)c2cc(Cl)ccc21 (stereo not drawn)
inactive: endpoint: mean survival time, dose: 100.0 mg/kg/injection, schedule: Q01DX001 (ip), vehicle: Klucel (hydroxypropylcellulose) (HPC) 96 % of control | endpoint: mean survival time, dose: 200.0 mg/kg/injection, schedule: Q01DX001 (ip), vehicle: Klucel (hydroxypropylcellulose) (HPC) 89 % of control

CC(=O)OC1CC2C[CH]([Hg][Cl])C1C2 (stereo not drawn)
inactive: endpoint: mean survival time, dose: 6.25 mg/kg/injection, schedule: Q04DX003 (ip), vehicle: saline with Tween-80 95 % of control | endpoint: mean survival time, dose: 12.5 mg/kg/injection, schedule: Q04DX003 (ip), vehicle: saline with Tween-80 111 % of control | endpoint: mean survival time, dose: 25.0 mg/kg/injection, schedule: Q04DX003 (ip), vehicle: saline with Tween-80 86 % of control

CCCCCCCCCCCCc1ccc(NC(C)=O)cc1
inactive: endpoint: mean survival time, dose: 100.0 mg/kg/injection, schedule: Q04DX003 (ip), vehicle: other 97 % of control | endpoint: mean survival time, dose: 200.0 mg/kg/injection, schedule: Q04DX003 (ip), vehicle: other 95 % of control | endpoint: mean survival time, dose: 400.0 mg/kg/injection, schedule: Q04DX003 (ip), vehicle: other 100 % of control

CCOC(=O)Nc1cc(NCCCCc2ccccc2)c([N+](=O)[O-])c(N)n1
inactive: endpoint: mean survival time, dose: 12.5 mg/kg/injection, schedule: Q01DX001 (ip), vehicle: Klucel (hydroxypropylcellulose) (HPC) 97 % of control | endpoint: mean survival time, dose: 25.0 mg/kg/injection, schedule: Q01DX001 (ip), vehicle: Klucel (hydroxypropylcellulose) (HPC) 103 % of control | endpoint: mean survival time, dose: 50.0 mg/kg/injection, schedule: Q01DX001 (ip), vehicle: Klucel (hydroxypropylcellulose) (HPC) 89 % of control

Nc1ncc(CCS)c(=O)[nH]1
inactive: [9] 97 % of control | [10] 98 % of control

Nc1nc(N)c(N=Nc2ccc(SCC(=O)O)cc2)c(N)n1
inactive: [4] 102 % of control | [5] 104 % of control | [6] 95 % of control
